How the values were obtained:
Tra2β = assay: Immunoblot of Tra2β in HeLa rtTA-HIV-ΔMls cells; type: cell-based, human; details: 3 d with ~IC50s of CSs
Excerpt: Figure 4 CSs suppress HIV-1 gene expression by altering viral RNA processing. […] (a,b) CSs induce oversplicing of HIV-1 RNAs (n ≥ 3, mean, s.e.m.). (a) Diagram of the primer positions (arrow heads) used for qRT-PCR. (b) Graph of the relative amount of US (black), SS (white), and MS (gray) HIV-1 RNAs in cells treated with various CSs. (c) Nuclear export of HIV-1 US RNAs in cells is altered by CSs (representative n ≥ 4). HIV-1 US RNAs were localized by FISH after treating HeLa rtTA-HIV(Gag-GFP) cells as described above but with ~IC90s of CSs. Nuclei were stained by DAPI and images captured at 630 × magnification. […] SRp20, Tra2β, and tubulin were analyzed by immunoblot of HeLa rtTA-HIV-ΔMls cells treated as described above except cells of this representative blot were treated 3 d with ~IC50s of CSs. […]
To monitor HIV-1 gene expression or replication, Gag release into cell culture supernatants were assayed by ELISA using a p24^CA antigen capture assay kit (AIDS & Cancer Virus Program, NCI-Frederick, Frederick, MD USA). […] For analysis of HIV-1 and SR protein expression (and phosphorylation states with calf intestinal alkaline phosphatase treatments), cells were lysed and analyzed by western blot as previously outlined. […] Activation of MAPKs was determined by western blot quantitation and calculation of phospho/total protein levels. […]

HeLa rtTA-HIV-ΔMls cells = type: cell-based, human; details: XTT
Procedure: Drug/compounds were tested for effects on HIV-1 gene expression using inducible Tet-ON HIV-1 cell lines [HeLa rtTA-HIV-ΔMls or rtTA-HIV(Gag-GFP)] containing a HIV-1 (LAI) provirus activatable by Dox or tetracycline transactivator (tTA)[69]. The rtTA-HIV-ΔMls provirus was modified and used as previously reported[9]–[11],[70]. The rtTA-HIV(Gag-GFP) provirus was generated by deletion of the PR and RT coding regions within pol and insertion of GFP to the 3′ of gag, creating GFP fused to the C-terminal of Gag. After 4 h of drug/compound treatment, HIV-1 gene expression was activated with Dox (2 μg/mL) or tTA (described below). Equal concentrations of DMSO were present in each experiment. After ~20 h, cells and media were harvested to monitor the effects of drug/compound treatments as described below. HIV-1 gene expression was quantified via p24^CA ELISA or monitoring Gag-GFP fluorescence in cells as described below. In parallel, cell viability of treatments were assessed by XTT assay (Sigma-Aldrich, #TOX2). For confirmatory tests, the CD4^+ HIV-1 T-cell line, 24ST1NLESG, from J. Dougherty, was treated with drug/compounds and HIV-1 gene expression activated by 1.8 µM of phorbol 12-myristate 13-acetate (PMA) as previously described[10],[11],[71].
Supplementary Figure S2. CSs inhibit HIV-1 gene expression in a dose-dependent manner. […]

| SMILES | abundance of a modified species of Tra2β (Tra2β) | toxicity (HeLa rtTA-HIV-ΔMls cells; at 1000 nM) | CC20 (cytotoxic effects ≥20%) (HeLa rtTA-HIV-ΔMls cells) |
| --- | --- | --- | --- |
| C[C@]12CC[C@H](O)C[C@H]1CC[C@@H]1[C@@H]2CC[C@]2(C)[C@@H](C3=CC(=O)OC3)CC[C@]12O [Digitoxigenin] | no effect | no toxicity | – |
| C[C@]12CC[C@H](O)C[C@H]1CC[C@@H]1[C@@H]2C[C@@H](O)[C@]2(C)[C@@H](C3=CC(=O)OC3)CC[C@]12O [Digoxigenin] | – | – | 0.6 µM |
| CC(=O)O[C@H]1C[C@H](O[C@H]2[C@@H](O)C[C@H](O[C@H]3[C@@H](O)C[C@H](O[C@H]4CC[C@@]5(C)[C@H](CC[C@@H]6[C@@H]5C[C@@H](O)[C@]5(C)[C@@H](C7=CC(=O)OC7)CC[C@]65O)C4)O[C@@H]3C)O[C@@H]2C)O[C@H](C)[C@H]1O[C@@H]1O[C@H](CO)[C@@H](O)[C@H](O)[C@H]1O [Lanatoside C] | no effect | – | – |

From paper PMC5770468, “Cardiac glycoside/aglycones inhibit HIV-1 gene expression by a mechanism requiring MEK1/2-ERK1/2 signaling” (Scientific Reports, 2018)
